Experimental data reported in PMC11785709, “Angelica gigas Nakai (Korean Dang-gui) Root Alcoholic Extracts in Health Promotion and Disease Therapy – active Phytochemicals and In Vivo Molecular Targets” (Pharmaceutical Research, 2025).

What was measured:
Test in all cases: Reaction Biology kinase activity inhibition
Format in all cases: biochemical
Conditions in all cases: initial screening
CK2a = molecular target: T1, CK2a (Homo sapiens, UniProt P68400)
T1 construct: purchased Reaction Biology
Source text: (§1) The second screening was the Reaction Biology® (Malvern, PA) kinase activity inhibition tests, which screened for more than 600 protein kinases and lipid kinases, using miniaturized radioisotope-based assay platform with γ-^33P-ATP, followed by confirmation with IC50 kinase profiling service with 5 concentrations of test compound (i.e., DOH and DA) with curve fitting.

JNK2 = molecular target: T2, JNK2 (Homo sapiens, UniProt P45984)
T2 construct: purchased Reaction Biology
Source text: as §1

PKCtheta = molecular target: T3, PKCtheta (Homo sapiens, UniProt Q04759)
T3 construct: purchased Reaction Biology
Source text: as §1

PKCzeta = molecular target: T4, PKCzeta (Homo sapiens, UniProt Q05513)
T4 construct: purchased Reaction Biology
Source text: as §1

MELK = molecular target: T5, MELK (Homo sapiens, UniProt Q14680)
T5 construct: purchased Reaction Biology
Source text: as §1

CDK3/cyclin E = molecular target: T6, CDK3/cyclin E (Homo sapiens, UniProt Q00526)
T6 construct: purchased Reaction Biology
Source text: as §1

CDK7/cyclin H = molecular target: T7, CDK7/cyclin H (Homo sapiens, UniProt P50613)
T7 construct: purchased Reaction Biology
Source text: as §1

STK32B/YANK2 = molecular target: T8, STK32B/YANK2 (Homo sapiens, UniProt Q9NY57)
T8 construct: purchased Reaction Biology
Source text: as §1

c-MET (Y1235D) = molecular target: T9, c-MET (Y1235D) (Homo sapiens, UniProt P08581, Y1235D)
T9 construct: purchased Reaction Biology
Source text: as §1

MKK7 (MAPK9) = molecular target: T10, MKK7 (MAPK9) (Homo sapiens, UniProt O14733)
T10 construct: purchased Reaction Biology
T10 sequence (O14733 2-419 limits assumed): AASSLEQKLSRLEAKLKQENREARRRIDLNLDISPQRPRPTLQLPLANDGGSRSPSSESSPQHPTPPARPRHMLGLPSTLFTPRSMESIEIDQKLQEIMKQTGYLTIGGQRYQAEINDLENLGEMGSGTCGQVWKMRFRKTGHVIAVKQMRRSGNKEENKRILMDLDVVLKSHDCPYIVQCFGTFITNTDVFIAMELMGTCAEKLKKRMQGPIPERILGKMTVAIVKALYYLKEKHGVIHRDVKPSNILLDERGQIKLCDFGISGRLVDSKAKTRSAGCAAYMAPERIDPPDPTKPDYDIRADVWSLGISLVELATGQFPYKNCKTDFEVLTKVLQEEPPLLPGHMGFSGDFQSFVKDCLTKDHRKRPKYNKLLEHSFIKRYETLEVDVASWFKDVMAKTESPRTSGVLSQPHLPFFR
Source text: as §1

ARK5/NUAK1 = molecular target: T11, ARK5/NUAK1 (Homo sapiens, UniProt O60285)
T11 construct: purchased Reaction Biology
T11 sequence (O60285 1-661): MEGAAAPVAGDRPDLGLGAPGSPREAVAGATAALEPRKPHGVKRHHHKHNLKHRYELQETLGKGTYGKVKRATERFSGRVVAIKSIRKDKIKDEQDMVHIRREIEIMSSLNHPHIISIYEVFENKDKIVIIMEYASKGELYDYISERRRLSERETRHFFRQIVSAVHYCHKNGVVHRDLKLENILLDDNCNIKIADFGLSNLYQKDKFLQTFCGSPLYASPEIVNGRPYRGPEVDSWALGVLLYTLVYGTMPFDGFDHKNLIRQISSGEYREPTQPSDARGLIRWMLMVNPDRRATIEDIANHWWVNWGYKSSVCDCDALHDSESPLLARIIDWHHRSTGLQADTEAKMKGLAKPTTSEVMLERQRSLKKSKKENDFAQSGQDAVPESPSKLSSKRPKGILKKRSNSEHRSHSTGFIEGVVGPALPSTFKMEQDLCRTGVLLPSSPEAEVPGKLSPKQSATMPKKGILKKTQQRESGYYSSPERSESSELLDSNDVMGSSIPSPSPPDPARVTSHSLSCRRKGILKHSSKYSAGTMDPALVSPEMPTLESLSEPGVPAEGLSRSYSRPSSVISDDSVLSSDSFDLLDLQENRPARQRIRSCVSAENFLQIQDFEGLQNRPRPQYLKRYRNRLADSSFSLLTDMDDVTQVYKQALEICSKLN
Source text: as §1

IRAK1 = molecular target: T12, IRAK1 (Homo sapiens, UniProt P51617)
T12 construct: purchased Reaction Biology
Source text: as §1

Aurora B = molecular target: T13, Aurora B (Homo sapiens, UniProt Q96GD4)
T13 construct: purchased Reaction Biology
Source text: as §1

STK21/CIT = molecular target: T14, STK21/CIT (Homo sapiens, UniProt O14578)
T14 construct: purchased Reaction Biology
Source text: as §1

PIM1 = molecular target: T15, PIM1 (Homo sapiens, UniProt P11309)
T15 construct: purchased Reaction Biology
Source text: as §1

c-Kit (D816H) = molecular target: T16, c-Kit (D816H) (Homo sapiens, UniProt P10721, D816H)
T16 construct: purchased Reaction Biology
Source text: as §1

[1] = DOH (50 µM), Data 1 and Data 2, read-out: % Enzyme Activity (relative to DMSO controls)

T14 sequence (O14578 whole entry): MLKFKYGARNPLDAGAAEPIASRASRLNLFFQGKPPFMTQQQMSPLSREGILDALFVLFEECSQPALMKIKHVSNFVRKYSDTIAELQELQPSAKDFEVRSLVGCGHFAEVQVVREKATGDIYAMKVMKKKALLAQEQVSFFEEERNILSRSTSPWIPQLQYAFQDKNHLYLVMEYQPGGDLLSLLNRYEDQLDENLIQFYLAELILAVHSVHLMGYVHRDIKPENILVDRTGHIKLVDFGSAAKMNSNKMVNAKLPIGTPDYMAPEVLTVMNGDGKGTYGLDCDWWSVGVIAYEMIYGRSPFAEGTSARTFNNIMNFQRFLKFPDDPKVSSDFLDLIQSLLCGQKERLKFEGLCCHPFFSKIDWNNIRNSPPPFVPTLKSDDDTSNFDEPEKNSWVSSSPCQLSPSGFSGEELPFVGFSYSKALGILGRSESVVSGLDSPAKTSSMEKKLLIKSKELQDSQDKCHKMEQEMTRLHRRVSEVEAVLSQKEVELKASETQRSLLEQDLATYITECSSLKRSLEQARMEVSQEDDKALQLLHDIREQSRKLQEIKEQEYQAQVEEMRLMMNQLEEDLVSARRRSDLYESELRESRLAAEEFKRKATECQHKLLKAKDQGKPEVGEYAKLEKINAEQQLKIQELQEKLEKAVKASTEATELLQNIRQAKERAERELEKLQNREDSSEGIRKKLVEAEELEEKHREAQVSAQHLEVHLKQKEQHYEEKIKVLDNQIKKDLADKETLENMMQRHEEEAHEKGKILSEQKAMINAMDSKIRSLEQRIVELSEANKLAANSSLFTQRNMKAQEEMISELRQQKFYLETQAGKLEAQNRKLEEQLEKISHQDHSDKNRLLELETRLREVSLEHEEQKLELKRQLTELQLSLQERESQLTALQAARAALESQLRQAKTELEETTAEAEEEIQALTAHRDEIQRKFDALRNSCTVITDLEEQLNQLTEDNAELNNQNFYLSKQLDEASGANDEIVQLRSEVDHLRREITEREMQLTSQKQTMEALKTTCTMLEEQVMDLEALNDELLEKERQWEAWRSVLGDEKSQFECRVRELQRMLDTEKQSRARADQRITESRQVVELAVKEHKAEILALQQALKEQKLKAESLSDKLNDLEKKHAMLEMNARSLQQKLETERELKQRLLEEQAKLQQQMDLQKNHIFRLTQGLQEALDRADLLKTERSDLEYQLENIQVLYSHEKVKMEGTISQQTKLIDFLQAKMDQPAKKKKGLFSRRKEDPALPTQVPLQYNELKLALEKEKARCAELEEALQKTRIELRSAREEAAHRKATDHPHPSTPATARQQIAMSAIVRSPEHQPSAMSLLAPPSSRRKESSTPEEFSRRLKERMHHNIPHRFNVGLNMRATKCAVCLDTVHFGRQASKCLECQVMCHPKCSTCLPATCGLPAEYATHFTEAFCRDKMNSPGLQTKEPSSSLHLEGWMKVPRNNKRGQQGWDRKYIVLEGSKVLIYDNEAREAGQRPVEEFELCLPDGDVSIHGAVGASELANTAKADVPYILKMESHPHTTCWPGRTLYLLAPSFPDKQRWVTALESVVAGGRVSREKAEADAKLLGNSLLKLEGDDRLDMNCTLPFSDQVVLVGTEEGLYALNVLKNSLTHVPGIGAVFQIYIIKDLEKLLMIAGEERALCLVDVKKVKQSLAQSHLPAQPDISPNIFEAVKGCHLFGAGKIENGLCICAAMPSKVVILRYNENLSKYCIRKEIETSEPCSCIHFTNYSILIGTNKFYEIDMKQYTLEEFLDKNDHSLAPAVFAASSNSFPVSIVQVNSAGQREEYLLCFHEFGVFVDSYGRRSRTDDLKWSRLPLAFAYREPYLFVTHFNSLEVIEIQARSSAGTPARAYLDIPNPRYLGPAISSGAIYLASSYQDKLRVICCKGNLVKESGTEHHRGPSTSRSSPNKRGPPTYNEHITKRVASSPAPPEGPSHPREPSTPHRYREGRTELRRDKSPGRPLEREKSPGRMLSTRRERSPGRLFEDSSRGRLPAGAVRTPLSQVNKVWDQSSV
T15 sequence (P11309 whole entry): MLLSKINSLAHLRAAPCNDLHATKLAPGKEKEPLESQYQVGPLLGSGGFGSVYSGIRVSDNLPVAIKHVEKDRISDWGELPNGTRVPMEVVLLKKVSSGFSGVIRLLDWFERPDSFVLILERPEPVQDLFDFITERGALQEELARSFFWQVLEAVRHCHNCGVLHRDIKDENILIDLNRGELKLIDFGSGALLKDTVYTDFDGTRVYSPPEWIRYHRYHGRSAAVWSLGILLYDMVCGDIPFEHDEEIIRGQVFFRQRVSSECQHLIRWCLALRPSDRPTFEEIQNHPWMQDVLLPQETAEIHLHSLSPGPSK
T7 sequence (P50613 whole entry): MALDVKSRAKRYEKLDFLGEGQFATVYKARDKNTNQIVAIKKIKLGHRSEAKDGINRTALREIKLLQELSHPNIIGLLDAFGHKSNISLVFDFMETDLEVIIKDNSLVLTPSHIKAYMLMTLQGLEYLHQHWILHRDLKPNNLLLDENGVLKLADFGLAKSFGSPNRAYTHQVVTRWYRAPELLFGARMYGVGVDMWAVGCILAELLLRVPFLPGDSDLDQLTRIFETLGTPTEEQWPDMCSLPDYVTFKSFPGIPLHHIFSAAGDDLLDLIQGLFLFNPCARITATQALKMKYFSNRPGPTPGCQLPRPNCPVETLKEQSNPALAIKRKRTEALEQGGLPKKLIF
T7 sequence (P51946 whole entry partner): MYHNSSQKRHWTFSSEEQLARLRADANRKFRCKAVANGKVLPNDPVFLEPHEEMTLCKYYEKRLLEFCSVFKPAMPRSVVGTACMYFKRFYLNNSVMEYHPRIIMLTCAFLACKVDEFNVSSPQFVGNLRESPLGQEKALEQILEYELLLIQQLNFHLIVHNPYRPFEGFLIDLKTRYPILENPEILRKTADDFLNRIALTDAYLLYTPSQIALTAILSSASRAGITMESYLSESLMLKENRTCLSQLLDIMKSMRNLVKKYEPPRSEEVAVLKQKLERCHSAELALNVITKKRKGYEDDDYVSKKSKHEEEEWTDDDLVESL
T7 sequence (P51948 whole entry partner): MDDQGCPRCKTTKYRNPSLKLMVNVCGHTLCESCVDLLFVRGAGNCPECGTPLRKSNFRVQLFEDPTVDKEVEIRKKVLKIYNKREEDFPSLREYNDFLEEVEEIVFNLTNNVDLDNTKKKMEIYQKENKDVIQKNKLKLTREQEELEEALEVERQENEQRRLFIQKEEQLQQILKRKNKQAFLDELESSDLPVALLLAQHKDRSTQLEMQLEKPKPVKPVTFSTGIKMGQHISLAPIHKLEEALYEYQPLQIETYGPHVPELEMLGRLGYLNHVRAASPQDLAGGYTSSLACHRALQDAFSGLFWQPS
T6 sequence (Q00526 whole entry): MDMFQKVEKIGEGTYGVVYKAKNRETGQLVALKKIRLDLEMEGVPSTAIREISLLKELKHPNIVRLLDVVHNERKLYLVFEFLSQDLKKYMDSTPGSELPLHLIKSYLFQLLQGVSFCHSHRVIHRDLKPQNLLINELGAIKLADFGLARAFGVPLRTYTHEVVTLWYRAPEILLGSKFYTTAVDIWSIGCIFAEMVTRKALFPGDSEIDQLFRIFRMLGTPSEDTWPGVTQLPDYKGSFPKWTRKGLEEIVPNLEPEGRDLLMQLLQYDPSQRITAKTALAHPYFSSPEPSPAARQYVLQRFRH
T6 sequence (P24864 whole entry partner): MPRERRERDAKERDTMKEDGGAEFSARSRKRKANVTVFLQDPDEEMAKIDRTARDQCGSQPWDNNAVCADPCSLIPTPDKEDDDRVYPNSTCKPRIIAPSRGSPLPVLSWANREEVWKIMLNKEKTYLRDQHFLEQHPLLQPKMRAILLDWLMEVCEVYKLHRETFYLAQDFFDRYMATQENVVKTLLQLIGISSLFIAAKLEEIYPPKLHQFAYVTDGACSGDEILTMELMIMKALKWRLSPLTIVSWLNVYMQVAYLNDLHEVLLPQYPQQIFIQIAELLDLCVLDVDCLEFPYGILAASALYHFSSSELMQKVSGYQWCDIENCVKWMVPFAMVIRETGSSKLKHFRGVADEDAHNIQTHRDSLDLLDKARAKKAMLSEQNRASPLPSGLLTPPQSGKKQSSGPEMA
T3 sequence (Q04759 whole entry): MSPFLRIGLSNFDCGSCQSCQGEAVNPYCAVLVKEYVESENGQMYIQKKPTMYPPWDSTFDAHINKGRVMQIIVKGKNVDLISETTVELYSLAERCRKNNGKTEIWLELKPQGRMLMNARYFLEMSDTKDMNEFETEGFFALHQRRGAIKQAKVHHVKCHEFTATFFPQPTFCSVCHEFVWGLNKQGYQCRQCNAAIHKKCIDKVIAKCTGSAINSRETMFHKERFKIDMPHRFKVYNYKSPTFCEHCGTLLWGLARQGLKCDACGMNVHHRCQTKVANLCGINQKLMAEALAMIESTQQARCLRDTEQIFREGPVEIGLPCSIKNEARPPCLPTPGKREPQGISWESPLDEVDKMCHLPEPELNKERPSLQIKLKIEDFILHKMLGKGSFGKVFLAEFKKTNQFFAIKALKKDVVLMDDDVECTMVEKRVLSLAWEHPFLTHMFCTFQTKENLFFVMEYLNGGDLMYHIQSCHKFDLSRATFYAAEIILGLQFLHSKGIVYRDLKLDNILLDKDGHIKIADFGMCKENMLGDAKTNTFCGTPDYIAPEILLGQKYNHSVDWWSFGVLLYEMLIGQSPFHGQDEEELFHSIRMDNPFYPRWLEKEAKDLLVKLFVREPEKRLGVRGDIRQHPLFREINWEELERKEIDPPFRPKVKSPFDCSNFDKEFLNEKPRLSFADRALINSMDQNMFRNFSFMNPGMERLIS

`CC1(C)Oc2cc3oc(=O)ccc3cc2C[C@@H]1O` [DOH, decursinol] was tested, and the inhibition at 50 µM (CK2a; DOH 50 µM) was 33%, the “% Enzyme Activity (relative to DMSO controls)” value (CK2a; DOH (50 µM), Data 1 and Data 2) was 66.2% and the remaining activity at 50 µM (CK2a; [1]) was 67.8%. The inhibition at 50 µM (JNK2; DOH 50 µM) was 29%, the “% Enzyme Activity (relative to DMSO controls)” value (JNK2; DOH (50 µM), Data 1 and Data 2) was 70.1% and the remaining activity at 50 µM (JNK2; [1]) was 72%. The inhibition at 50 µM (PKCtheta; DOH 50 µM) was 30.1%, the “% Enzyme Activity (relative to DMSO controls)” value (PKCtheta; DOH (50 µM), Data 1 and Data 2) was 69.2% and the remaining activity at 50 µM (PKCtheta; [1]) was 70.5%. For the same compound, the inhibition at 50 µM (PKCzeta; DOH 50 µM) was 27.1%, the remaining activity at 50 µM (PKCzeta; [1]) was 72.9% and the inhibition at 50 µM (MELK; DOH 50 µM) was 35.2%. For the same compound, the “% Enzyme Activity (relative to DMSO controls)” value (MELK; DOH (50 µM), Data 1 and Data 2) was 64.6%, the remaining activity at 50 µM (MELK; [1]) was 65% and the inhibition at 50 µM (CDK3/cyclin E; DOH 50 µM) was 30.3%. The “% Enzyme Activity (relative to DMSO controls)” value (CDK3/cyclin E; DOH (50 µM), Data 1 and Data 2) was 69.4%, the remaining activity at 50 µM (CDK3/cyclin E; [1]) was 70% and the inhibition at 50 µM (CDK7/cyclin H; DOH 50 µM) was 25.7%. The “% Enzyme Activity (relative to DMSO controls)” value (CDK7/cyclin H; DOH (50 µM), Data 1 and Data 2) was 73.9%, the remaining activity at 50 µM (CDK7/cyclin H; [1]) was 74.8% and the inhibition at 50 µM (STK32B/YANK2; DOH 50 µM) was 31.1%. For the same compound, the “% Enzyme Activity (relative to DMSO controls)” value (STK32B/YANK2; DOH (50 µM), Data 1 and Data 2) was 67.4%, the remaining activity at 50 µM (STK32B/YANK2; [1]) was 70.3% and the inhibition at 50 µM (c-MET (Y1235D); DOH 50 µM) was 30.7%. The “% Enzyme Activity (relative to DMSO controls)” value (c-MET (Y1235D); DOH (50 µM), Data 1 and Data 2) was 69.0%, the remaining activity at 50 µM (c-MET (Y1235D); [1]) was 69.5% and the inhibition at 50 µM (MKK7 (MAPK9); DOH 50 µM) was 36.5%. The “% Enzyme Activity (relative to DMSO controls)” value (MKK7 (MAPK9); DOH (50 µM), Data 1 and Data 2) was 61.2%, the remaining activity at 50 µM (MKK7 (MAPK9); [1]) was 65.9% and the inhibition at 50 µM (ARK5/NUAK1; DOH 50 µM) was 27.4%. For the same compound, the “% Enzyme Activity (relative to DMSO controls)” value (ARK5/NUAK1; DOH (50 µM), Data 1 and Data 2) was 72.5%, the remaining activity at 50 µM (ARK5/NUAK1; [1]) was 72.6% and the inhibition at 50 µM (IRAK1; DOH 50 µM) was 38.5%. For the same compound, the “% Enzyme Activity (relative to DMSO controls)” value (IRAK1; DOH (50 µM), Data 1 and Data 2) was 58.4%, the remaining activity at 50 µM (IRAK1; [1]) was 64.5% and the inhibition at 50 µM (Aurora B; DOH 50 µM) was 36.2%. For the same compound, the “% Enzyme Activity (relative to DMSO controls)” value (Aurora B; DOH (50 µM), Data 1 and Data 2) was 63.7%, the remaining activity at 50 µM (Aurora B; [1]) was 64% and the inhibition at 50 µM (STK21/CIT; DOH 50 µM) was 28.3%. For the same compound, the “% Enzyme Activity (relative to DMSO controls)” value (STK21/CIT; DOH (50 µM), Data 1 and Data 2) was 71.1%, the remaining activity at 50 µM (STK21/CIT; [1]) was 72.2% and the inhibition at 50 µM (PIM1; DOH 50 µM) was 38.5%. The “% Enzyme Activity (relative to DMSO controls)” value (PIM1; DOH (50 µM), Data 1 and Data 2) was 60.3%, the remaining activity at 50 µM (PIM1; [1]) was 62.7% and the inhibition at 50 µM (c-Kit (D816H); DOH 50 µM) was 25.5%. The “% Enzyme Activity (relative to DMSO controls)” value (c-Kit (D816H); DOH (50 µM), Data 1 and Data 2) was 66.8% and the remaining activity at 50 µM (c-Kit (D816H); [1]) was 82.2%.
